# From US6512000B1, “Aminocarbonyl-substituted benzimidazoles having tryptase-inhibitory activity” (Boehringer Ingelheim Pharma KG, priority 1999, dated 2003)
# Molecular target: T1, rh beta tryptase (Homo sapiens, UniProt P20231)
# T1 construct: purchased Promega
# Test: Tryptase inhibition test (cleavage of N-p-tosyl-Gly-Pro-Lys-para-nitroaniline, p-nitroaniline measured at 405 nm)
# Type: biochemical
# Settings: concentration at which 50% of the tryptase enzyme activity is inhibited; substrate 0.6 mM, pH 7.4, 37° C.
# In short: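 Recombinant human beta tryptase (0.91 U/ml) in 100 mM Tris HCl pH 7.4 with 5 mM calcium and 100 mg/ml heparin; compounds pre-incubated 5 min, then 0.6 mM tosyl-Gly-Pro-Lys-pNA added, 5 min at 37 °C. p-Nitroaniline read at 405 nm; % inhibition at 10 μM, IC50 determined when inhibition exceeded 70%.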
# T1 sequence (P20231 31-275): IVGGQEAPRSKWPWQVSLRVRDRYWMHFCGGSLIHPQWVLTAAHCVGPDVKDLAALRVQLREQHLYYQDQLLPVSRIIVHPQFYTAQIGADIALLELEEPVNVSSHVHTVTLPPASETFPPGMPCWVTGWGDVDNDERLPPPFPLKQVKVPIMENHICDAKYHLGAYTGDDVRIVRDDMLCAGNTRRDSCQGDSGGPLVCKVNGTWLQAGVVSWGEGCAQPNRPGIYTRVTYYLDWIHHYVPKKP
row,Structure (SMILES),IC50 [nM]
1,"CCOCCCn1c(CCc2ccc(C(=N)N)cc2)nc2cc(C(=O)N(Cc3ccc(CN)cc3)CC3CCCCC3)ccc21 [Example 150, 2-[2-(4-amidinophenyl)ethyl]-1-(3-ethoxypropyl)-benzimidazol-5-yl-carboxylic acid-N-[4-(amino-methyl)-benzyl]-N-cyclohexylmethyl-amide]",292
2,"CCOCCCn1c(CCc2ccc(C(=N)N)cc2)nc2cc(C(=O)N(CCCc3ccccc3)Cc3ccc(CN)cc3)ccc21 [Example 166, 2-[2-(4-amidinophenyl)ethyl]-1-(3-ethoxypropyl)-benzimidazol-5-yl-carboxylic acid-N-[4-(amino-methyl)-benzyl]-N-(3-phenylpropyl)-amide]",274

# The remaining lines, values ahead:
row,IC50 [nM],Structure (SMILES)
1,369,"CCOCCCn1c(CCc2ccc(C(=N)N)cc2)nc2cc(C(=O)N(Cc3ccccc3)Cc3ccc(CN)cc3)ccc21 [Example 102, 2-[2-(4-amidinophenyl)ethyl]-1-(3-ethoxypropyl)-benzimidazol-5-yl-carboxylic acid-N-[4-(amino-methyl)-benzyl]-N-benzyl-amide]"
2,344,"N=C(N)c1ccc(CCc2nc3cc(C(=O)N(Cc4ccccc4)Cc4ccc(CN)cc4)ccc3n2CCc2ccccc2)cc1 [Example 107, 2-[2-(4-amidinophenyl)ethyl]-1-(2-phenylethyl)-benzimidazol-5-yl-carboxylic acid-N-[4-(amino-methyl)-benzyl]-N-benzyl-amide]"

# Same assay, conditions: inhibition of rh beta tryptase at 10 μM test substance; substrate N-p-tosyl-Gly-Pro-Lys-para-nitroaniline 0.6 mM, pH 7.4, 37° C., 5 minutes
Structure (SMILES),inhibition at 10 µM [%],% Inhibition (10 μM) [%]
"CCCCN(Cc1ccc(CN)cc1)C(=O)c1ccc2c(c1)nc(CCc1ccc(C(=N)N)cc1)n2CC1CCCO1 (centres unmarked) [Example 98, 2-[2-(4-amidinophenyl)ethyl]-1-(tetrahydrofuran-2-yl-methyl)-benzimidazol-5-yl-carboxylic acid-N-[4-(amino-methyl)-benzyl]-N-n-butyl-amide]",67,–
"CCCCN(Cc1ccc(CN)cc1)C(=O)c1ccc2c(c1)nc(CCc1ccc(C(=N)N)cc1)n2Cc1cccs1 [Example 99, 2-[2-(4-amidinophenyl)ethyl]-1-(2-thiophenyl-methyl)-benzimidazol-5-yl-carboxylic acid-N-[4-(amino-methyl)-benzyl]-N-n-butyl-amide]",58,–
"CCCCN(Cc1ccc(CN)cc1)C(=O)c1ccc2c(c1)nc(CCc1ccc(C(=N)N)cc1)n2Cc1ccc2c(c1)OCO2 [Example 100, 2-[2-(4-amidinophenyl)ethyl]-1-(1,3-benzodioxol-5-yl-methyl)-benzimidazol-5-yl-carboxylic acid-N-[4-(amino-methyl)-benzyl]-N-n-butyl-amide]",67,–
"CCCCN(CCCC)CCCn1c(CCc2ccc(C(=N)N)cc2)nc2cc(C(=O)N(Cc3ccccc3)Cc3ccc(CN)cc3)ccc21 [Example 103, 2-[2-(4-amidinophenyl)ethyl]-1-(3-di-n-butylaminopropyl)-benzimidazol-5-yl-carboxylic acid-N-[4-(amino-methyl)-benzyl]-N-benzyl-amide]",60,–
"N=C(N)c1ccc(CCc2nc3cc(C(=O)N(Cc4ccccc4)Cc4ccc(CN)cc4)ccc3n2CCCNC(=O)Cc2ccccc2)cc1 [Example 104, 2-[2-(4-amidinophenyl)ethyl]-1-[3-(benzylcarbonylamino)-propyl]-benzimidazol-5-yl-carboxylic acid-N-[4-(amino-methyl)-benzyl]-N-benzyl-amide]",74,–
"CCOCCCn1c(CCc2ccc(C(=N)N)cc2)nc2cc(C(=O)N(Cc3ccc(CN)cc3)CC3CCCCC3)ccc21 [Example 150, 2-[2-(4-amidinophenyl)ethyl]-1-(3-ethoxypropyl)-benzimidazol-5-yl-carboxylic acid-N-[4-(amino-methyl)-benzyl]-N-cyclohexylmethyl-amide]",60,–
"N=C(N)c1ccc(CCc2nc3cc(C(=O)N(Cc4ccc(CN)cc4)CC4CCCCC4)ccc3n2CCCNC(=O)Cc2ccccc2)cc1 [Example 152, 2-[2-(4-amidinophenyl)ethyl]-1-[3-(benzylcarbonylamino)-propyl]-benzimidazol-5-yl-carboxylic acid-N-[4-(amino-methyl)-benzyl]-N-cyclohexylmethyl-amide]",65,–
"N=C(N)c1ccc(CCc2nc3cc(C(=O)N(Cc4ccc(CN)cc4)CC4CCCCC4)ccc3n2CC2CC2)cc1 [Example 154, 2-[2-(4-amidinophenyl)ethyl]-1-cyclopropylmethyl-benzimidazol-5-yl-carboxylic acid-N-[4-(amino-methyl)-benzyl]-N-cyclohexylmethyl-amide]",63,–
"N=C(N)c1ccc(CCc2nc3cc(C(=O)N(Cc4ccc(CN)cc4)CC4CCCCC4)ccc3n2CC2CCCO2)cc1 (centres unmarked) [Example 162, 2-[2-(4-amidinophenyl)ethyl]-1-(tetrahydrofuran-2-yl-methyl)-benzimidazol-5-yl-carboxylic acid-N-[4-(amino-methyl)-benzyl]-N-cyclohexylmethyl-amide]",60,–
"CCOCCCn1c(CCc2ccc(C(=N)N)cc2)nc2cc(C(=O)N(CCCc3ccccc3)Cc3ccc(CN)cc3)ccc21 [Example 166, 2-[2-(4-amidinophenyl)ethyl]-1-(3-ethoxypropyl)-benzimidazol-5-yl-carboxylic acid-N-[4-(amino-methyl)-benzyl]-N-(3-phenylpropyl)-amide]",57,–
"CCCCN(CCCC)CCCn1c(CCc2ccc(C(=N)N)cc2)nc2cc(C(=O)N(CCCc3ccccc3)Cc3ccc(CN)cc3)ccc21 [Example 167, 2-[2-(4-amidinophenyl)ethyl]-1-(3-di-n-butylaminopropyl) benzimidazol-5-yl-carboxylic acid-N-[4-(amino-methyl)-benzyl]-N-(3-phenylpropyl)-amide]",52,–
"N=C(N)c1ccc(CCc2nc3cc(C(=O)N(CCCc4ccccc4)Cc4ccc(CN)cc4)ccc3n2CCCNC(=O)Cc2ccccc2)cc1 [Example 168, 2-[2-(4-amidinophenyl)ethyl]-1-[3-(benzylcarbonylamino)-propyl]-benzimidazol-5-yl-carboxylic acid-N-[4-(amino-methyl)-benzyl]-N-(3-phenylpropyl)-amide]",66,–
"N=C(N)c1ccc(CCc2nc3cc(C(=O)N(CCCc4ccccc4)Cc4ccc(CN)cc4)ccc3n2CCC2CCCCC2)cc1 [Example 169, 2-[2-(4-amidinophenyl)ethyl]-1-(2-cyclohexylethyl)-benzimidazol-5-yl-carboxylic acid-N-[4-(amino-methyl)-benzyl]-N-(3-phenylpropyl)-amide]",52,–
"Cc1ccc(Cn2c(CCc3ccc(C(=N)N)cc3)nc3cc(C(=O)N(CCCc4ccccc4)Cc4ccc(CN)cc4)ccc32)cc1 [Example 173, 2-[2-(4-amidinophenyl)ethyl]-1-(4-methylbenzyl)-benzimidazol-5-yl-carboxylic acid-N-[4-(amino-methyl)-benzyl]-N-(3-phenylpropyl)-amide]",51,–
"CCOCCCn1c(CCc2ccc(C(=N)N)cc2)nc2cc(C(=O)N(Cc3ccc(Cl)cc3)Cc3ccc(CN)cc3)ccc21 [Example 182, 2-[2-(4-amidinophenyl)ethyl]-1-(3-ethoxypropyl)-benzimidazol-5-yl-carboxylic acid-N-[4-(amino-methyl)-benzyl]-N-(4-chlorbenzyl)-amide]",–,67
"CCCCN(CCCC)CCCn1c(CCc2ccc(C(=N)N)cc2)nc2cc(C(=O)N(Cc3ccc(Cl)cc3)Cc3ccc(CN)cc3)ccc21 [Example 183, 2-[2-(4-amidinophenyl)ethyl]-1-(3-di-n-butylaminopropyl)-benzimidazol-5-yl-carboxylic acid-N-[4-(amino-methyl)-benzyl]-N-(4 chlorbenzyl)-amide]",–,56

# Now from value to compound:
inhibition at 10 µM [%],% Inhibition (10 μM) [%],Structure (SMILES)
58,–,"N=C(N)c1ccc(CCc2nc3cc(C(=O)N(Cc4ccccc4)Cc4ccc(CN)cc4)ccc3n2CC2CC2)cc1 [Example 106, 2-[2-(4-amidinophenyl)ethyl]-1-cyclopropylmethyl-benzimidazol-5-yl-carboxylic acid-N-[4-(amino-methyl)-benzyl]-N-benzyl-amide]"
65,–,"N=C(N)c1ccc(CCc2nc3cc(C(=O)N(Cc4ccccc4)Cc4ccc(CN)cc4)ccc3n2CCc2ccccc2)cc1 [Example 107, 2-[2-(4-amidinophenyl)ethyl]-1-(2-phenylethyl)-benzimidazol-5-yl-carboxylic acid-N-[4-(amino-methyl)-benzyl]-N-benzyl-amide]"
56,–,"N=C(N)c1ccc(CCc2nc3cc(C(=O)N(Cc4ccccc4)Cc4ccc(CN)cc4)ccc3n2CCCN2CCOCC2)cc1 [Example 113, 2-[2-(4-amidinophenyl)ethyl]-1-[3-(morpholin-4-yl)-propyl]-benzimidazol-5-yl-carboxylic acid-N-[4-(amino-methyl)-benzyl]-N-benzyl-amide]"
58,–,"N=C(N)c1ccc(CCc2nc3cc(C(=O)N(Cc4ccccc4)Cc4ccc(CN)cc4)ccc3n2CC2CCCO2)cc1 (centres unmarked) [Example 114, 2-[2-(4-amidinophenyl)ethyl]-1-(tetrahydrofuran-2-yl-methyl)-benzimidazol-5-yl-carboxylic acid-N-[4-(amino-methyl)-benzyl]-N-benzyl-amide]"
57,–,"N=C(N)c1ccc(CCc2nc3cc(C(=O)N(Cc4ccc(CN)cc4)CC4CCCCC4)ccc3n2CCc2ccccc2)cc1 [Example 155, 2-[2-(4-amidinophenyl)ethyl]-1-(2-phenylethyl)-benzimidazol-5-yl-carboxylic acid-N-[4-(amino-methyl)-benzyl]-N-cyclohexylmethyl-amide]"
56,–,"N=C(N)c1ccc(CCc2nc3cc(C(=O)N(Cc4ccc(CN)cc4)CC4CCCCC4)ccc3n2CCCN2CCOCC2)cc1 [Example 161, 2-[2-(4-amidinophenyl)ethyl]-1-[3-(morpholin-4-yl)-propyl]-benzimidazol-5-yl-carboxylic acid-N-[4-(amino-methyl)-benzyl]-N-cyclohexylmethyl-amide]"
57,–,"N=C(N)c1ccc(CCc2nc3cc(C(=O)N(CCCc4ccccc4)Cc4ccc(CN)cc4)ccc3n2CC2CC2)cc1 [Example 170, 2-[2-(4-amidinophenyl)ethyl]-1-cyclopropylmethyl-benzimidazol-5-yl-carboxylic acid-N-[4-(amino-methyl)-benzyl]-N-(3-phenylpropyl)-amide]"
68,–,"N=C(N)c1ccc(CCc2nc3cc(C(=O)N(CCCc4ccccc4)Cc4ccc(CN)cc4)ccc3n2CCCN2CCOCC2)cc1 [Example 177, 2-[2-(4-amidinophenyl)ethyl]-1-[3-(morpholin-4-yl)-propyl]-benzimidazol-5-yl-carboxylic acid-N-[4-(amino-methyl)-benzyl]-N-(3-phenylpropyl)-amide]"
51,–,"N=C(N)c1ccc(CCc2nc3cc(C(=O)N(CCCc4ccccc4)Cc4ccc(CN)cc4)ccc3n2CC2CCCO2)cc1 (centres unmarked) [Example 178, 2-[2-(4-amidinophenyl)ethyl]-1-(tetrahydrofuran-2-yl-methyl)-benzimidazol-5-yl-carboxylic acid-N-[4-(amino-methyl)-benzyl]-N-(3-phenylpropyl)-amide]"
